From patent publication US12180207B2 (ARRAY BIOPHARMA INC., priority 2018, dated 2024)

What was measured:
[1] = target: FGFR1 (SEQ ID NO: 1, amino acids 458-765) (Homo sapiens (Human), UniProt P11362); assay: LC/MS FGFR1 kobs assay (covalent protein modification); assay type: binding; conditions: 500 nM FGFR1, 3 μM compound
How it was run: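 Covalent labeling of FGFR1 kinase domain (aa 458-765) tracked over time by intact-protein LC/MS after formic acid quench. kobs derived by fitting DMSO-normalized percent unmodified FGFR1 to an exponential decay model.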

[2] = target: recombinant human FGFR3 (amino acids R397-T806) (Homo sapiens (Human), UniProt P22607); assay: FGFR3 enzyme activity assay (LanthaScreen TR-FRET); assay type: biochemical; conditions: 25 μM ATP, 10 min incubation at 22° C., average of multiple determinations if made, read-out: FGFR3 Enz FRET IC50
How it was run: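 GST-HIS6-tagged human FGFR3 (R397-T806) was reacted with 100 nM Alexa Fluor 647-Poly-GT substrate and 25 μM ATP plus compound in HEPES/MgCl2/Triton buffer, pH 7.5, 2% DMSO, for 10 min at 22 °C.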

[3] = target: FGFR3 (SEQ ID NO: 5, amino acids 449-759) (Homo sapiens (Human), UniProt P22607); assay: LC/MS FGFR3 kobs assay (covalent protein modification); assay type: binding; conditions: 500 nM FGFR3, 3 μM compound
How it was run: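 Samples are acid-quenched at set times and read by Q-TOF mass spectrometry. kobs is obtained by fitting DMSO-normalized percent unmodified protein to an exponential decay model.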

[4] = target: recombinant human FGFR1 catalytic domain (amino acids 308-731) (Homo sapiens (Human), UniProt P11362); assay: FGFR1 enzyme activity assay (LanthaScreen TR-FRET); assay type: biochemical; conditions: 20 min incubation at 22° C., average of multiple determinations if made, read-out: FGFR1 Enz FRET IC50
How it was run: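 His-tagged FGFR1 kinase domain with 100 nM Alexa Fluor 647-poly-GT peptide and ATP in pH 7.5 HEPES/MgCl2 buffer with 2% DMSO, 20 min at 22 °C. Quenched with EDTA plus 2 nM Eu-PY20 antibody and read after 60 min. IC50 comes from a 4-parameter fit of percent of control.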

Chain of FGFR3 (SEQ ID NO: 5, amino acids 449-759) (P22607 449-759): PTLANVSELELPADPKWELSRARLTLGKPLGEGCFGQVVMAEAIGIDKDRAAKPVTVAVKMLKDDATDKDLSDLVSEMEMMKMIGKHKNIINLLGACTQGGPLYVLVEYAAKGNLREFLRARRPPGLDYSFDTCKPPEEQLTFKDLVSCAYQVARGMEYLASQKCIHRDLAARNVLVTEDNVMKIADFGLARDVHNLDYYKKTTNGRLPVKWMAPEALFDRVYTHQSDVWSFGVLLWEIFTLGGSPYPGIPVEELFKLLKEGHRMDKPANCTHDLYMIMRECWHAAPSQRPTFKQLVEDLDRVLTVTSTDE
Chain of recombinant human FGFR1 catalytic domain (amino acids 308-731) (P11362 other isoform, or with tags, fused parts or gaps): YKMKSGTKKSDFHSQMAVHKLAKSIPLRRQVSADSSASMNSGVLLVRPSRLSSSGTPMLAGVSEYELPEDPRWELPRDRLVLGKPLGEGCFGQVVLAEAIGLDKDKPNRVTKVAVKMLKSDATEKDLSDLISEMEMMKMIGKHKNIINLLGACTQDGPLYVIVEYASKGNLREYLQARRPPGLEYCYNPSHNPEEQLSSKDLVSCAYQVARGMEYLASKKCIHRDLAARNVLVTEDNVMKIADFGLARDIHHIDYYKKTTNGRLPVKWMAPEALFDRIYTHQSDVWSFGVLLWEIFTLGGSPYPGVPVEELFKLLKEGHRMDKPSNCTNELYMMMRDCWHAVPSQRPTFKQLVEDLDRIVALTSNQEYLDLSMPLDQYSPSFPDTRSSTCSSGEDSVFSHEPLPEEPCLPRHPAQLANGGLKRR
Chain of FGFR1 (SEQ ID NO: 1, amino acids 458-765) (P11362 458-765): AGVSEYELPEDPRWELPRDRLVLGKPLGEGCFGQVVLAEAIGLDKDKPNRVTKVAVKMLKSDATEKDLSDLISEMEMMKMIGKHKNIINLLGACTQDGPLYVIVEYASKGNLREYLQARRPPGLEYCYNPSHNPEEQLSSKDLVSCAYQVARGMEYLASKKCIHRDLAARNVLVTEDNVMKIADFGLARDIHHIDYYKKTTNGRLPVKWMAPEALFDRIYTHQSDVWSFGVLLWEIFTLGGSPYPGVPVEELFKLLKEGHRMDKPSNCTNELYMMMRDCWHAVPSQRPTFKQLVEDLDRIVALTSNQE
Chain of recombinant human FGFR3 (amino acids R397-T806) (P22607 397-806): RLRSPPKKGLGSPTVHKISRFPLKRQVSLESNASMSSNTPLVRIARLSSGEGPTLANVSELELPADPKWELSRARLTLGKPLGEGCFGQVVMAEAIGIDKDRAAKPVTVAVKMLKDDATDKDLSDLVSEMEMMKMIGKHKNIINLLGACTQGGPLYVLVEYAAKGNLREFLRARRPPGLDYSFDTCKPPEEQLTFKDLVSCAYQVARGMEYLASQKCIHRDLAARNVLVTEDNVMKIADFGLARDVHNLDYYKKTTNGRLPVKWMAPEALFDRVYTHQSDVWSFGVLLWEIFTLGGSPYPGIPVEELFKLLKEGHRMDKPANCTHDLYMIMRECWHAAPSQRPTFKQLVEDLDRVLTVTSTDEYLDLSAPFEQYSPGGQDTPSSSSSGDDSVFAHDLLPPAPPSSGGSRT

Row | Compound | FGFR1 Enz kobs [1] [min⁻¹] | IC50 [2] [nM] | FGFR3 Enz kobs [3] [min⁻¹] | IC50 [4] [nM]
1 | C=CC(=O)N(C)c1ccc(C(=O)N2CCC(n3cc(-c4cc(OC)c5c(C#N)cnn5c4)cn3)CC2)cc1 [Example 178, N-(4-(4-(4-(3-cyano-4-methoxypyrazolo[1,5-a]pyridin-6-yl)-1H-pyrazol-1-yl)piperidine-1-carbonyl)phenyl)-N-methylacrylamide] | 0.00131 | 12 | 0.01469 | 14
2 | C=CC(=O)N1CC(C(=O)N2CCN(c3ncc(-c4cc(OC)c5c(C#N)cnn5c4)cc3C)CC2)C1 [Example 113, 6-(6-(4-(1-acryloylazetidine-3-carbonyl)piperazin-1-yl)-5-methylpyridin-3-yl)-4-methoxypyrazolo[1,5-a]pyridine-3-carbonitrile] | 0.00304 | 105 | 0.02175 | 107
3 | C=CC(=O)N1CC(C(=O)N2CCC(n3cc(-c4cc(-c5ccc(NC(=O)C6CC6)cc5F)c5c(C#N)cnn5c4)cn3)CC2)C1 [Example 130, N-(4-(6-(1-(1-(1-acryloylazetidine-3-carbonyl)piperidin-4-yl)-1H-pyrazol-4-yl)-3-cyanopyrazolo[1,5-a]pyridin-4-yl)-3-fluorophenyl)cyclopropane-carboxamide] | 0.00132 | 2 | 0.01127 | 3
4 | COc1cc(-c2cnn(C3CCN(CC4CN(C(=O)/C=C/CN5CCCCC5)C4)CC3)c2)cn2ncc(C#N)c12 [Example 175, (E)-4-methoxy-6-(1-(1-((1-(4-(piperidin-1-yl)but-2-enoyl)azetidin-3-yl)methyl)piperidin-4-yl)-1H-pyrazol-4-yl)pyrazolo[1,5-a]pyridine-3-carbonitrile] | 0.00204 | 5 | 0.01233 | 4
5 | C=CC(=O)N1CC(S(=O)(=O)N2CCC(n3cc(-c4cc(OC)c5c(C#N)cnn5c4)cn3)CC2)C1 [Example 134, 6-(1-(1-((1-acryloylazetidin-3-yl)sulfonyl)piperidin-4-yl)-1H-pyrazol-4-yl)-4-methoxypyrazolo[1,5-a]pyridine-3-carbonitrile] | 0.00288 | 6 | 0.02537 | 5
6 | C=CC(=O)N1CC(C(=O)N2CCC(n3cc(-c4cc(OCC(C)C)c5c(C#N)cnn5c4)cn3)CC2)C1 [Example 128, 6-(1-(1-(1-acryloylazetidine-3-carbonyl)piperidin-4-yl)-1H-pyrazol-4-yl)-4-isobutoxypyrazolo[1,5-a]pyridine-3-carbonitrile] | 0.00134 | 3 | 0.01702 | 7
7 | COc1cc(-c2cnn(C3CCN(C(=O)C4CN(C(=O)/C=C/CN(C)C)C4)CC3)c2)cn2ncc(Cl)c12 [Example 174] | 0.00242 | 4 | 0.02588 | 16
8 | C=CC(=O)N1CC(OC)(C(=O)N2CCC(n3cc(-c4cc(OC)c5c(Cl)cnn5c4)cn3)CC2)C1 [Example 124, 1-(3-(4-(4-(3-chloro-4-methoxypyrazolo[1,5-a]pyridin-6-yl)-1H-pyrazol-1-yl)piperidine-1-carbonyl)-3-methoxyazetidin-1-yl)prop-2-en-1-one] | 0.00241 | 8 | 0.02484 | 38
9 | C=CC(=O)N1CC(F)(C(=O)N2CCC(n3ncc(-c4cc(OC)c5c(C#N)cnn5c4)c3CC)CC2)C1 [Example 96, 6-(1-(1-(1-acryloyl-3-fluoroazetidine-3-carbonyl)piperidin-4-yl)-5-ethyl-1H-pyrazol-4-yl)-4-methoxypyrazolo[1,5-a]pyridine-3-carbonitrile] | 0.00363 | 291 | 0.03335 | 384
10 | COc1cc(-c2cnn(C3CCN(CC4CN(C(=O)/C=C/CN(C)C)C4)CC3)c2)cn2ncc(C#N)c12 [Example 146, (E)-6-(1-(1-((1-(4-(dimethylamino)but-2-enoyl)azetidin-3-yl)methyl)piperidin-4-yl)-1H-pyrazol-4-yl)-4-methoxypyrazolo [1,5-a]pyridine-3-carbonitrile] | 0.00306 | 2 | 0.01542 | 12
11 | C=CC(=O)N1CCC(n2cc(-c3cc(OC)c4c(C#N)cnn4c3)cn2)CC1 [Example 11, 6-(1-(1-acryloylpiperidin-4-yl)-1H-pyrazol-4-yl)-4-methoxypyrazolo[1,5-a]pyridine-3-carbonitrile] | 0.0002 | 7 | 0.00206 | 22
12 | C=CC(=O)N1CC2(CCN(C(=O)N3CCC(n4cc(-c5cc(OC)c6c(C#N)cnn6c5)cn4)CC3)C2)C1 [Example 8, 6-(1-(1-(2-acryloyl-2,6-diazaspiro[3.4]octane-6-carbonyl)piperidin-4-yl)-1H-pyrazol-4-yl)-4-methoxypyrazolo[1,5-a]pyridine-3-carbonitrile] | 0.00124 | 3 | 0.01122 | 18
13 | C=CC(=O)N1CC(CN2CCC(n3cc(-c4cc(OC)c5c(C#N)cnn5c4)cn3)CC2)C1 [Example 132, 6-(1-(1-((1-acryloylazetidin-3-yl)methyl)piperidin-4-yl)-1H-pyrazol-4-yl)-4-methoxypyrazolo[1,5-a]pyridine-3-carbonitrile] | 0.00146 | 8 | 0.013 | 14

Next, values leading:

Row | FGFR1 Enz kobs [1] [min⁻¹] | IC50 [2] [nM] | FGFR3 Enz kobs [3] [min⁻¹] | IC50 [4] [nM] | Compound
14 | 0.01359 | 2 | 0.3446 | 7 | C#CC(=O)N1CC(C(=O)N2CCC(n3cc(-c4cc(OC)c5c(C#N)cnn5c4)cn3)CC2)C1 [Example 138, 4-methoxy-6-(1-(1-(1-propioloylazetidine-3-carbonyl)piperidin-4-yl)-1H-pyrazol-4-yl)pyrazolo[1,5-a]pyridine-3-carbonitrile]
15 | 0.00576 | 83 | 0.08 | 156 | COc1cc(-c2cnc(N3CCN(C(=O)C4(F)CN(C(=O)/C=C/CN(C)C)C4)CC3)cc2C)cn2ncc(C#N)c12 [Example 169, (E)-6-(6-(4-(1-(4-(dimethylamino)but-2-enoyl)-3-fluoroazetidine-3-carbonyl)piperazin-1-yl) -4-methylpyridin-3-yl)-4-methoxypyrazolo [1,5-a]pyridine-3-carbonitrile]
16 | 0.00056 | 3 | 0.00418 | 10 | C=CC(=O)N1CCC(F)(C(=O)N2CCC(n3cc(-c4cc(OC)c5c(C#N)cnn5c4)cn3)CC2)CC1 [Example 13, 6-(1-(1-(1-acryloyl-4-fluoropiperidine-4-carbonyl)piperidin-4-yl)-1H-pyrazol-4-yl)-4-methoxypyrazolo[1,5-a]pyridine-3-carbonitrile]
17 | 0.00278 | 2 | 0.02052 | 10 | COc1cc(-c2cnn(C3CCN(C(=O)C4CN(C(=O)/C=C/CN(C)C)C4)CC3)c2)cn2ncc(C#N)c12 [Example 143, (E)-6-(1-(1-(1-(4-(dimethylamino)but-2-enoyl)azetidine-3-carbonyl)piperidin-4-yl)-1H-pyrazol-4-yl)-4-methoxypyrazolo [1,5-a]pyridine-3-carbonitrile]
18 | 0.0028 | 5 | 0.01992 | 13 | C=CC(=O)N1CC(C(=O)N2CCC(n3cc(-c4cc(OCC)c5c(C#N)cnn5c4)cn3)CC2)C1 [Example 126, 6-(1-(1-(1-acryloylazetidine-3-carbonyl)piperidin-4-yl)-1H-pyrazol-4-yl)-4-ethoxypyrazolo[1,5-a]pyridine-3-carbonitrile]
19 | 0.00223 | 4 | 0.01185 | 13 | C=CC(=O)N1CC(C(=O)N2CCC(c3ccc(-c4cc(OC)c5c(C#N)cnn5c4)cc3)CC2)C1 [Example 101, 6-(4-(1-(1-acryloylazetidine-3-carbonyl)piperidin-4-yl)phenyl)-4-methoxypyrazolo[1,5-a]pyridine-3-carbonitrile]
20 | 0.04552 | 6 | 0.1329 | 19 | COc1cc(-c2cnn(C3CCN(C(=O)C4CN(C(=O)/C=C/CBr)C4)CC3)c2)cn2ncc(C#N)c12 [Example 180, (E)-6-(1-(1-(1-(4-bromobut-2-enoyl)azetidine-3-carbonyl)piperidin-4-yl)-1H-pyrazol-4-yl)-4-methoxypyrazolo[1,5-a]pyridine-3-carbonitrile]
